From patent US10471046B2, “Method for treating, preventing, or reducing the risk of skin infection” (Melinta Subsidiary Corp., priority 2014, dated 2019)
In brackets after ≈: the same amount, converted by molar mass. Like-named read-outs stand apart in the source and are kept apart here.

System: S. aureus
Assay: Minimum inhibitory concentrations (MICs) for S. aureus of exemplary compounds (Table 2)
Format: cell-based
Settings: Staphylococcus aureus, read-out: MICs
In short: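 MICs (μg/mL) against S. aureus come from microtiter-tray dilution susceptibility testing per NCCLS M7-A5, comparing growth with and without compound.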

[1] = minimum inhibitory concentrations for S. aureus

MIC [1] [µg/mL] | Compound | MIC [µg/mL]
2 (≈ 4.07 µM) | CC(=O)NC[C@H]1CN(c2ccc(-c3ccc([C@H](O)CN4CCCC(F)(F)C4)cc3)c(F)c2)C(=O)O1 [Compound 1075, N-(3-{4′-[2-(3,3-Difluoro-piperidin-1-yl)-1-(S)-hydroxy-ethyl]-2-fluoro-biphenyl-4-yl}-2-oxo-oxazolidin-5-(S)-ylmethyl)-acetamide] | 
0.5 (≈ 1.03 µM) | CC(=O)NC[C@H]1CN(c2ccc(-c3ccc(CNCCSc4nnc[nH]4)cc3)c(F)c2)C(=O)O1 [Compound 5005, N-[3-(2-Fluoro-4′-{[2-(4H-[1,2,4]triazol-3-ylsulfanyl)-ethylamino]-methyl}-biphenyl-4-yl)-2-oxo-oxazolidin-5-(S)-ylmethyl]-acetamide] | 
4 (≈ 8.55 µM) | CC(=O)NC[C@H]1CN(c2ccc(-c3ccc(CNCc4sccc4C)cc3)c(F)c2)C(=O)O1 [Compound 4099, N-[3-(2-Fluoro-4′-{[(3-methyl-thiophen-2-ylmethyl)-amino]-methyl}-biphenyl-4-yl)-2-oxo-oxazolidin-5-(S)-ylmethyl]-acetamide] | 
8 (≈ 17.1 µM) | COc1cc(CNCc2ccoc2)ccc1-c1ccc(N2C[C@H](CNC(C)=O)OC2=O)cc1F [Compound 4028, N-[3-(2-Fluoro-4′-{[(furan-3-ylmethyl)-amino]-methyl}-2′-methoxy-biphenyl-4-yl)-2-oxo-oxazolidin-5-(S)-ylmethyl]-acetamide] | 
0.5 (≈ 1 µM) | CC(=O)NC[C@H]1CN(c2ccc(-c3ccc(CNCc4c(C)nn(C)c4Cl)cc3)c(F)c2)C(=O)O1 [Compound 4126, N-[3-(4′-{[(5-Chloro-1,3-dimethyl-1H-pyrazol-4-ylmethyl)-amino]-methyl}-2-fluoro-biphenyl-4-yl)-2-oxo-oxazolidin-5-(S)-ylmethyl]-acetamide] | 
1 (≈ 2.36 µM) | CC(=O)NC[C@H]1CN(c2ccc(-c3ccc(Cc4noc(C)n4)cc3)c(F)c2)C(=O)O1 [Compound 1017, N-{3-[2-Fluoro-4′-(5-(S)-methyl-[1,2,4]oxadiazol-3-ylmethyl)-biphenyl-4-yl]-2-oxo-oxazolidin-5-(S)-ylmethyl}-acetamide] | 
16 (≈ 34.7 µM) | CC(=O)NC[C@H]1CN(c2ccc(-c3ccc(C(=N)NCc4ccccn4)cc3)c(F)c2)C(=O)O1 [Compound 4097, N-{3-[2-Fluoro-4′-(N-pyridin-2-ylmethyl-carbamimidoyl)-biphenyl-4-yl]-2-oxo-oxazolidin-5-(S)-ylmethyl}-acetamide] | 
1 (≈ 2.44 µM) | CC(=O)NC[C@H]1CN(c2ccc(-c3ccc(Cn4cncn4)nc3)c(F)c2)C(=O)O1 [Compound 1072, N-{3-[3-Fluoro-4-(6-[1,2,4]triazol-1-ylmethyl-pyridin-3-yl)-phenyl]-2-oxo-oxazolidin-5-(S)-ylmethyl}-acetamide] | 
0.25 (≈ 0.554 µM) | CC(=O)NC[C@H]1CN(c2ccc(-c3ccc(CSc4ccccn4)cc3)c(F)c2)C(=O)O1 [Compound 2018, N-{3-[2-Fluoro-4′-(pyridin-2-ylsulfanylmethyl)-biphenyl-4-yl]-2-oxo-oxazolidin-5-(S)-ylmethyl}-acetamide] | 
128 (≈ 227 µM) | COc1nc(C)c(C=CC(=O)NCc2ccc(-c3ccc(N4C[C@H](CNC(C)=O)OC4=O)cc3F)cc2)c(OC)n1 [Compound 4003, N-{4′-[5-(S)-(Acetylamino-methyl)-2-oxo-oxazolidin-3-yl]-2′-fluoro-biphenyl-4-ylmethyl}-3-(2,4-dimethoxy-6-methyl-pyrimidin-5-yl)-acrylamide] | 
2 (≈ 3.34 µM) | CC(=O)NC[C@H]1CN(c2ccc(-c3ccc(CNc4nc(CNC(=O)[C@@H](N)CCCCN)ns4)cc3)c(F)c2)C(=O)O1 [Compound 2014, 2,6-Diamino-hexanoic acid [5-({4′-[5-(acetylamino-methyl)-2-oxo-oxazolidin-3-yl]-2′-fluoro-biphenyl-4-ylmethyl}-amino)-[1,2,4]thiadiazol-3-ylmethyl]-amide] | 
4 (≈ 7.8 µM) | CC(=O)NC[C@H]1CN(c2ccc(-c3ccc(CNCc4ccc(-n5cccc5)cc4)cc3)c(F)c2)C(=O)O1 [Compound 4147, N-(3-{2-Fluoro-4′-[(4-pyrrol-1-yl-benzylamino)-methyl]-biphenyl-4-yl}-2-oxo-oxazolidin-5-(S)-ylmethyl)-acetamide] | 
8 | CC(=O)NC[C@H]1CN(c2ccc(-c3ccc(C(C)NCc4ccncc4)cc3)c(F)c2)C(=O)O1 (mixture of isomers) [Compound 4232, N-[3-(2-Fluoro-4′-{1-(R/S)-[(pyridin-4-ylmethyl)-amino]-ethyl}-biphenyl-4-yl)-2-oxo-oxazolidin-5-(S)-ylmethyl]-acetamide] | 
1 (≈ 2.21 µM) | CC(=O)NC[C@H]1CN(c2ccc(-c3ccc(SCc4ccncc4)cc3)c(F)c2)C(=O)O1 [Compound 3001, N-{3-[2-Fluoro-4′-(pyridin-4-ylmethylsulfanyl)-biphenyl-4-yl]-2-oxo-oxazolidin-5-(S)-ylmethyl}-acetamide] | 
2 (≈ 4.12 µM) | CC(=O)NC[C@H]1CN(c2ccc(-c3ccc(CNCc4nn(C)cc4Cl)cc3)c(F)c2)C(=O)O1 [Compound 4139, N-[3-(4′-{[(4-Chloro-1-methyl-1H-pyrazol-3-ylmethyl)-amino]-methyl}-2-fluoro-biphenyl-4-yl)-2-oxo-oxazolidin-5-(S)-ylmethyl]-acetamide] | 
1 (≈ 1.99 µM) | CC(=O)NC[C@H]1CN(c2ccc(-c3ccc(Cn4cnc5c(N(C)C)ncnc54)cc3)c(F)c2)C(=O)O1 [Compound 1105, N-{3-[4′-(6-Dimethylamino-purin-9-ylmethyl)-2-fluoro-biphenyl-4-yl]-2-oxo-oxazolidin-5-(S)-ylmethyl}-acetamide] | 
2 (≈ 3.87 µM) | CC(=O)NC[C@H]1CN(c2ccc(-c3ccc(CNCc4ccc(Cl)cc4Cl)cc3)c(F)c2)C(=O)O1 [Compound 4064, N-(3-{4′-[(2,4-Dichloro-benzylamino)-methyl]-2-fluoro-biphenyl-4-yl}-2-oxo-oxazolidin-5-(S)-ylmethyl)-acetamide] | 
32 (≈ 63.3 µM) | Cn1nnnc1SC[C@H]1CN(c2ccc(-c3ccc(CNCc4ccncc4)cc3)c(F)c2)C(=O)O1 [Compound 4231, 3-(2-Fluoro-4′-{[(pyridin-4-ylmethyl)-amino]-methyl}-biphenyl-4-yl)-5-(R)-(1-methyl-1H-tetrazol-5-ylsulfanylmethyl)-oxazolidin-2-one] | 
2 (≈ 4.07 µM) | CC(=O)NC[C@H]1CN(c2ccc(-c3ccc([C@H](O)CN(C)Cc4ccccc4)cc3)c(F)c2)C(=O)O1 [Compound 4251, N-(3-{4′-[2-(Benzyl-methyl-amino)-1-(S)-hydroxy-ethyl]-2-fluoro-biphenyl-4-yl}-2-oxo-oxazolidin-5-(S)-ylmethyl)-acetamide] | 
4 (≈ 8.88 µM) | CC(=O)NC[C@H]1CN(c2ccc(-c3ccc(COCc4ccccn4)cn3)c(F)c2)C(=O)O1 [Compound 4197, N-(3-{3-Fluoro-4-[5-(pyridin-2-ylmethoxymethyl)-pyridin-2-yl]-phenyl}-2-oxo-oxazolidin-5-(S)-ylmethyl)-acetamide] | 
4 (≈ 8.2 µM) | CC(=O)NC[C@H]1CN(c2ccc(-c3ccc(CNCc4nc5ccccc5[nH]4)cc3)c(F)c2)C(=O)O1 [Compound 4092, N-[3-(4′-{[(1H-Benzoimidazol-2-ylmethyl)-amino]-methyl}-2-fluoro-biphenyl-4-yl)-2-oxo-oxazolidin-5-(S)-ylmethyl]-acetamide] | 
1 (≈ 2.15 µM) | CC(=O)NC[C@H]1CN(c2ccc(-c3ccc(CNC(=O)c4cccn4C)cc3)c(F)c2)C(=O)O1 [Compound 4010, 1-Methyl-1H-pyrrole-2-carboxylic acid {4′-[5-(S)-(acetylamino-methyl)-2-oxo-oxazolidin-3-yl]-2′-fluoro-biphenyl-4-ylmethyl}-amide] | 
1 (≈ 2.28 µM) | CC(=O)NC[C@H]1CN(c2ccc(-c3ccc(Cn4cc(CN)nn4)cc3)c(F)c2)C(=O)O1 [Compound 1011, N-{3-[4′-(4-Aminomethyl-[1,2,3]triazol-1-ylmethyl)-2-fluoro-biphenyl-4-yl]-2-oxo-oxazolidin-5-(S)-ylmethyl}-acetamide] | 
1 (≈ 2.32 µM) | CC(=O)NC[C@H]1CN(c2ccc(-c3ccc(CSCC4CO4)cc3)c(F)c2)C(=O)O1 (stereo partly drawn) [Compound 4226, N-[3-(2-Fluoro-4′-oxiranylmethylsulfanylmethyl-biphenyl-4-yl)-2-oxo-oxazolidin-5-(S)-ylmethyl]-acetamide] | 
4 (≈ 8.8 µM) | CC(=O)NC[C@H]1CN(c2ccc(-c3ccc(CNCCN4CCCC4)cc3)c(F)c2)C(=O)O1 [Compound 4259, N-(3-{2-Fluoro-4′-[(2-pyrrolidin-1-yl-ethylamino)-methyl]-biphenyl-4-yl}-2-oxo-oxazolidin-5-(S)-ylmethyl)-acetamide] | 
2 (≈ 4.38 µM) | CSc1nnnn1Cc1ccc(-c2ccc(N3C[C@H](CNC(C)=O)OC3=O)cc2F)cc1 [Compound 1079, N-{3-[2-Fluoro-4′-(5-methylsulfanyl-tetrazol-1-ylmethyl)-biphenyl-4-yl]-2-oxo-oxazolidin-5-(S)-ylmethyl}-acetamide] | 
0.25 (≈ 0.552 µM) | CC(=O)NC[C@H]1CN(c2ccc(-c3ccc(CN(C)Cc4cnn[nH]4)cc3)c(F)c2)C(=O)O1 [Compound 4276, N-[3-(2-Fluoro-4′-{[methyl-(3H-[1,2,3]triazol-4-ylmethyl)-amino]-methyl}-biphenyl-4-yl)-2-oxo-oxazolidin-5-(S)-ylmethyl]-acetamide] | 
 | CC(=O)NC[C@H]1CN(c2cc(F)c(-c3ccc(Cn4cc(CO)nn4)cc3)c(F)c2)C(=O)O1 [Compound 1018, N-{3-[2,6-Difluoro-4′-(4-hydroxymethyl-[1,2,3]triazol-1-ylmethyl)-biphenyl-4-yl]-2-oxo-oxazolidin-5-(S)-ylmethyl}-acetamide] | 1 (≈ 2.19 µM)
2 (≈ 4.13 µM) | CC(=O)NC[C@H]1CN(c2ccc(-c3ccc(CNCC(CF)n4ccnn4)cc3)c(F)c2)C(=O)O1 (stereo partly drawn) [Compound 4274, N-(3-{2-Fluoro-4′-[(3-fluoro-2-[1,2,3]triazol-1-yl-propylamino)-methyl]-biphenyl-4-yl}-2-oxo-oxazolidin-5-(S)-ylmethyl)-acetamide] | 
16 (≈ 32.4 µM) | CC(=O)NC[C@H]1CN(c2ccc(-c3ccc(CNC(=O)[C@H](N)Cc4cnc[nH]4)cc3)c(F)c2)C(=O)O1 [Compound 4292, N-{4′-[5-(S)-(Acetylamino-methyl)-2-oxo-oxazolidin-3-yl]-2′-fluoro-biphenyl-4-ylmethyl}-2-(R)-amino-3-(3H-imidazol-4-yl)-propionamide] | 
